From article PMC8696986, “Synthesis and evaluation of 3′-[^18F]fluorothymidine-5′-squaryl as a bioisostere of 3′-[^18F]fluorothymidine-5′-monophosphate” (RSC Advances, 2021)
Like-named read-outs stand apart in the source and are kept apart here. One block for each molecule: values may come before it.

Assays:
[1] = set-up: method as in PMID 12217356, PMID 27319940; details: cited from earlier work
[2] = cited from earlier work
[3] = Log D7.5 determination (shake flask method); assay type: physicochemical; details: octanol/PBS pH 7.5, mean ± SD, n = 3
Protocol: The hydrophilicity of [^18F]SqFLT (>90% RCP) was determined experimentally by its Log D7.5 using the shake flask method. […] Being a highly hydrophilic molecule, we were sceptical that [^18F]SqFLT would be cell permeable and aimed to determine this experimentally in radioactive cell uptake experiments.
To a 1.5 mL microcentrifuge tube was added PBS pH 7.5 (500 μL) and octanol (500 μL). The tube was shaken for 15 min, followed by centrifugation (13 000g, 5 min). [^18F]SqFLT (3 MBq) in PBS (<5% EtOH) was added and the samples shaken for 30 min, followed by centrifugation (13 000g, 5 min). Aliquots from the octanol layer and PBS layer were removed (100 μL) and placed in counting tubes. Radioactivity was measured using a γ-counter and the partition coefficient was calculated using Log D7.5 = log10[Oct/PBS]. The Log D7.5 value was reported as mean ± SD (n = 3, triplicate analysis).

WT HCT116 cells = assay: In vitro cell uptake of radiotracer in WT HCT116 cells; assay type: cell-based, human
Protocol: (§1) HCT116 (human colon cancer; LGC Standards, Teddington, Middlesex, UK) and subsequent knockdown HCT116^shTMPK− cells were cultured in Roswell Park Memorial Institute Medium 1640 supplemented with 10% foetal bovine serum, 2% Penicillin-Streptomycin (5000 U mL^−1) and 1% L-Glutamine. Cells were maintained in a 5% CO2 humidified incubator at 37 °C and grown in 6-well plates at 300 000 cells per well or 1 500 000 cells (per 15 cm petri dish for HPLC) for the stated cell lines. All cells were grown for 24 h in a volume of 2 mL per well or 10 mL per petri dish unless stated otherwise. All cells were maintained at 60–70% confluence prior to experiments, passaged in our laboratory for fewer than 6 months on receipt and were tested mycoplasma free. Experiments were performed using cells under 10 passages.
[^18F]SqFLT (0.74 mBq per well) was added to individual wells and cells were incubated at 37 °C in a humidified atmosphere of 5% CO2 for 15, 30, 60, 90 and 120 min. Following incubation, cells were washed three times with 1× PBS and lysed once ice for 15 min using RIPA buffer (1 mL per well). Cell lysates were homogenized and transferred to radioactivity counting tubes. Radioactivity in each sample was counted using an auto-gamma counter (Perkin Elmer, London, UK). Total protein per sample was quantified using the Pierce™ BCA protein assay method. Decay corrected counts were normalized to protein concentration as percentage incubated dose per milligram of cellular protein (%ID per mg protein) in each sample.

HCT116^shTMPK− cells = assay: In vitro cell uptake of radiotracer in TMPK knockdown HCT116^shTMPK− cells; assay type: cell-based, human; details: 0.74 MBq, 60 min incubation, n = 6, mean ± SEM
Protocol: as §1
Guide RNA (gRNA) sequences for CRISPR/Cas9 were generated from CRISPR design web site (http://crispr.mit.edu/), provided by the Feng Zhang Lab.[33] […]
[^18F]SqFLT (0.74 mBq per well) was added to individual wells and cells were incubated at 37 °C in a humidified atmosphere of 5% CO2 for 15, 30, 60, 90 and 120 min. […] Cell lysates were homogenized and transferred to radioactivity counting tubes. Radioactivity in each sample was counted using an auto-gamma counter (Perkin Elmer, London, UK). Total protein per sample was quantified using the Pierce™ BCA protein assay method. […]

[4] = test system: TK1 and ENT1/2 ([^18F]FLT uptake in HCT116 cells); assay: In vitro competition assay between [^18F]FLT and thymidine/[^19F]SqFLT; assay type: cell-based, human
Protocol: HCT116 were plated and maintained at 60–70% confluence in complete media conditions as previously described. […] Treated cells were incubated at 37 °C for 20 min before [^18F]FLT was added to each well to yield a final concentration of 0.74 mBq per well. Cells were subsequently incubated in a humidified atmosphere of 5% CO2 for 1 h before being lysed and gamma counted as previously described.
(§2) 6.0 Metabolite analysis in microsomes
Figure 31. Representative HPLC chromatograms showing A) parent [18F]SqFLT, and incubation of [18F]SqFLT with HLM for B) 30 mins and C) 60 mins.
The experiment was performed in triplicate (n = 3)
7.0 Gene structure and positions of CRISPR and PCR primers.
Figure 32. Diagram (not to scale) indicates overall gene structure and positions of the CRISPRS […]
8.0 Determining if [18F]SqFLT is a substrate for TK1 and ENT1/2 […]
and B) [19F]SqFLT to determine the effect on [18F]FLT uptake. HCT116 cells (at 60 – 70 % […]
for 20 min prior to co-incubation with [18F]FLT (0.74 MBq). Radioactive uptake normalised […]

[5] = molecular target: T1, ABCB1 transporter (HCT116 cells) (Homo sapiens, UniProt P08183); assay: Efflux assay with verapamil; assay type: cell-based; details: verapamil 3 μM, 1 h pre-incubation then 1 h co-incubation
T1 construct: endogenous in cells; host or cells: HCT116 cells
Protocol: HCT116 cells were plated and maintained at 60–70% confluence in complete media conditions as previously described. Following 24 h, cell media was aspirated and treated with media containing 3 μM verapamil for 1 h prior to co-incubation with 0.74 mBq of [^18F]SqFLT. Cells were subsequently incubated for a further 1 h before being lysed and gamma counted as previously described.
9.0 Determining if [18F]SqFLT is a substrate for multidrug resistance proteins
0.00 Control 1 h Verapamil
Figure 34. Uptake of [18F]SqFLT in HCT116 cells following treatment with Verapamil. HCT 116 cells were pre-incubated with Verapamil (3 µM) for 60 min followed by co-incubated with [18F]SqFLT (0.74 MBq). One-way Anova statistical analysis and Dunnets post hoc was performed for n = 5 samples.
10.0 Time activity curves (TAC)
Figure 35. Time-activity curves derived from region-of-interest analysis of PET imaging data (including detail of uptake kinetics between 0-5 min of [18F]SqFLT injection) in bladder, kidneys and gallbladder. Data represent mean ± SEM (n>5) and is expressed as % of injected […]
1 M. Yun, S. J. Oh, H. J. Ha, J. S. Ryu and D. H. Moon, Nucl. Med. Biol., 2003, 30, 151–
2 C. N. Tetzlaff, I. Schwope, C. F. Bleczinski, J. A. Steinberg and C. Richert, Tetrahedron
(also on this page, place not known: [18F]-SqFLT (% ID/mg protein) uptake of 4215–4218.)
(1 picture or pasted object on this page, not shown here)

[6] = In vitro metabolite analysis in human liver microsomes; assay type: in vitro ADME; details: HLM, 37 °C, over 60 min
Protocol: A published method for performing in vitro metabolite analysis using liver microsomes was adapted.[35] [^18F]SqFLT (40 μL, 3.5 MBq) was added to human liver microsomes (50 μL, 1 mg mL^−1), NADPH regeneration system A (50 μL), NADPH regeneration system B (10 μL) and PBS (400 μL, 0.1 M) in a 1.5 mL microcentrifuge tube. The mixture was gently vortexed and incubated in aerobic conditions at 37 °C with gentle shaking for either 30 min or 60 min using a thermomixer. The mixture was transferred into a 15 mL plastic centrifuge tube and proteins were precipitated with ice-cold MeCN + 0.1% TFA (2 mL) and vortexed. Proteins were pelleted by centrifugation (12 000g, 3 min), and the supernatant removed and filtered (0.2 μm). The supernatant was diluted (1 : 9) with H2O + 0.1% TFA and injected onto a HPLC instrument bearing a 1 mL injection loop and PosiRam (LabLogic, Sheffield, UK) metabolite detector. Samples of a known volume were taken from the supernatant and the entire protein pellet were counted using an auto-gamma counter (Perkin Elmer, London, UK) to determine the extraction efficiency. All experiments were performed in triplicate (n = 3).
as §2
Figure 31. Representative HPLC chromatograms showing A) parent [18F]SqFLT, and incubation of [18F]SqFLT with HLM for B) 30 mins and C) 60 mins. The extraction efficiency was 96.1 ± 0.4 %. […]

WT HCT116 tumours = assay: Dynamic PET imaging, WT HCT116 xenografts; assay type: in vivo, female BALB/c athymic nude mice
Protocol: (§3) Female BALB/c athymic nude mice (6–8 weeks old), injected subcutaneously with either mutant HCT116^shTMPK− or WT HCT116 (Charles River UK Ltd., Margate, UK) at 5 × 10^6 cells per mouse, using dynamic PET imaging (Fig. 5A). Inoculations were performed under 2% isoflurane/O2 anesthesia 7 days after animal arrival. All mice were aged 10–16 weeks with similar weight (20 ± 2 g) and kept under standard conditions in individually ventilated cages (maximum of 6 animals per cage) prior to experiments.
(§4) BALB/c mice (Charles River UK Ltd, Margate, UK) were anesthetized and scanned on a dedicated small animal PET scanner (G4 Genesis, Sofie Biosciences, Culver City, CA, USA) following a bolus injection of 0.75 MBq of [^18F]SqFLT via a lateral tail vein cannula. Imaging was performed under 2% isoflurane/O2 anaesthesia. After tracer injection, emission scans were acquired in list-mode format (over 0–60 min – dynamic scans) to give decay-corrected values of radioactivity accumulation in tissues. The collected data were reconstructed with a 3-dimensional maximum likelihood estimation method 3D ML-EM (Sofie Biosciences). Cumulative images of the data were used for visualization of radiotracer uptake and to define tissue volumes of interest (VOIs) using Siemens Inveon Research Workplace software (Siemens Molecular Imaging, Inc. Knoxville, USA). Tissue radioactivity uptake values were normalized to injected dose and mouse weight.

HCT116^shTMPK− tumours = assay: Dynamic PET imaging, HCT116^shTMPK− xenografts; assay type: in vivo, female BALB/c athymic nude mice; details: mutant HCT116^shTMPK− xenograft, 2–10 min post-injection, PET time–activity curve
Protocol: as §3
as §4, with “Cumulative images of the data were used for visualization of radiotracer uptake and to define tissue volumes of interest (VOIs) using Siemens Inveon Research Workplace software (Siemens Molecular Imaging, Inc. Knoxville, USA).” left out

T1 sequence (P08183 whole entry): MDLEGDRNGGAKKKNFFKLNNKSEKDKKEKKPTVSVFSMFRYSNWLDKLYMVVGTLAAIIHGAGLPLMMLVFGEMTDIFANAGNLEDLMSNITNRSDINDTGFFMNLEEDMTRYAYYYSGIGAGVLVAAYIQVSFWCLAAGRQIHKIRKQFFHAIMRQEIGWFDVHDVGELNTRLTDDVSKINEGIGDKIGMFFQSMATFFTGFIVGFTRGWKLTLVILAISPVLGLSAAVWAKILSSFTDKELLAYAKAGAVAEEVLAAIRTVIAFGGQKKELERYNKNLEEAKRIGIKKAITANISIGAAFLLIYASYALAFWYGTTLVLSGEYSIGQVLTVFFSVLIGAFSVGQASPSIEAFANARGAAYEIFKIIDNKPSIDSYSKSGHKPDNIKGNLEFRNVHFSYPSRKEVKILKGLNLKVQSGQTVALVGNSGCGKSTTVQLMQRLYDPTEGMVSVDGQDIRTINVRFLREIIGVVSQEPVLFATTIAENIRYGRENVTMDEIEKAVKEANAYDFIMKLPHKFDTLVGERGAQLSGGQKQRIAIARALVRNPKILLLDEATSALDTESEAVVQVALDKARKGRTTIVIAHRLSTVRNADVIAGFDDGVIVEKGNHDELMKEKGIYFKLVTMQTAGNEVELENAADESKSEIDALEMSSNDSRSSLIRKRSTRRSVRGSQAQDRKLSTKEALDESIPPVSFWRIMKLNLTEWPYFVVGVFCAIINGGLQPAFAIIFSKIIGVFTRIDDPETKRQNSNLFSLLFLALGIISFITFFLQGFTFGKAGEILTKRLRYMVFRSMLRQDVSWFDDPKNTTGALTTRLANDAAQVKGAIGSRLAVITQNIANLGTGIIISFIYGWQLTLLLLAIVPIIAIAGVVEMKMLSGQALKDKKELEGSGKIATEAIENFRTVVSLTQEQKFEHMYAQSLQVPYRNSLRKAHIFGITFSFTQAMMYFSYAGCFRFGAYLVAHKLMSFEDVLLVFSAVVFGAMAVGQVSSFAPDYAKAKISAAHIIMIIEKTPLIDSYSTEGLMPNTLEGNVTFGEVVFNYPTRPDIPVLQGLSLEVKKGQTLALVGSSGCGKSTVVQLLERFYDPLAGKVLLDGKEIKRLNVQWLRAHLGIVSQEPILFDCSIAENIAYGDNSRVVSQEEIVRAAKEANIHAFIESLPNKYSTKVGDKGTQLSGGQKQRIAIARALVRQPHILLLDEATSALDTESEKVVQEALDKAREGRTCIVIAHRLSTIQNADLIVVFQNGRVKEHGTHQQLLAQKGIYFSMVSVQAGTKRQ

Molecule: 3′-[^18F]fluorothymidine-5′-monophosphate [[^18F]FLTMP]
monophosphate pKa ([1]; first value): 1.6
monophosphate pKa ([1]; second value): 6.6

Molecule: O=c1c(O)c(NCc2ccccc2)c1=O [3-(benzylamino)-4-hydroxycyclobut-3-ene-1,2-dione]
permeability ([2]; PAMPA): significantly higher permeability compared to a phosphate analogue
Log D7.4 ([2]; pH 7.4): −1.4

logD [3]: -2.9 ± 0.24
effect of verapamil on radiotracer uptake [5]: did not change radiotracer uptake
metabolism in human liver microsomes [6]: no metabolism over 60 min
peak radiotracer uptake in tumour (WT HCT116 tumours; WT HCT116 xenograft, 2–10 min post-injection, PET time–activity curve): 2.69 ± 0.12 % ID g^−1
time of peak radiotracer uptake in tumour (WT HCT116 tumours; post-injection, WT and mutant xenografts, 60 min dynamic PET scan): 2 to 10 min
peak radiotracer uptake in tumour (HCT116^shTMPK− tumours): 1.58 ± 0.12 % ID g^−1
Molecule: Cc1cn([C@H]2C[C@H]([18F])[C@@H](CNc3c(O)c(=O)c3=O)O2)c(=O)[nH]c1=O [[^18F]SqFLT, 3′-[^18F]fluorothymidine-5′-squaryl]
tracer uptake in vitro (WT HCT116 cells; HCT116 and HCT116^shTMPK− cells, as summed up in the abstract): < 0.3 % ID mg^−1
uptake of [^18F]SqFLT (WT HCT116 cells; WT HCT116, 0.74 MBq, 60 min incubation, n = 6, mean ± SEM): 0.24 ± 0.04 % ID mg^−1
drop of uptake (WT HCT116 cells; WT HCT116, between 15–120 min): 2 fold
time of peak uptake (WT HCT116 cells; WT HCT116, uptake kinetic profile over 120 min): 0 to 15 min
uptake of [^18F]SqFLT (HCT116^shTMPK− cells): 0.14 ± 0.04 % ID g^−1
dependence of uptake on TK1 and nucleoside transporters (ENT1/2) ([4]; inferred from competition of [^19F]SqFLT (1–10 μg mL^−1) with [^18F]FLT): independent of TK1 and nucleoside transporters (ENT1/2)
route of elimination (WT HCT116 tumours; mice, PET time-activity curves): eliminated through the kidney, liver, and bladder

Molecule: Cc1cn([C@H]2C[C@H](F)[C@@H](CNc3c(O)c(=O)c3=O)O2)c(=O)[nH]c1=O [[^19F]SqFLT, 5′-amino-5′-N-(2-hydroxy-3,4-dioxocyclobuten-1-yl)-5′,3′-deoxy-3′-fluoro-thymidine]
effect on [^18F]FLT uptake ([4]; 10^−3–10^1 μg mL^−1, 20 min before [^18F]FLT, then 1 h): did not inhibit [^18F]FLT uptake
